# Experimental data published in patent US5872139A, “Heterocyclymethylamino derivatives of cyclobutene-3,4-diones” (American Home Products Corporation, priority 1997, dated 1999).
# System: Isolated Rat Bladder Strips
# Assay: Inhibition of contractions in isolated rat bladder strips (KCl-stimulated)
# Assay type: cell-based, Sprague-Dawley rats
# Details: 30 μM, 15 mM KCl, read-out: Percent inhibition (I) at 30 μM
# Excerpt: The smooth muscle relaxing activity of the compounds of this invention was established in accordance with standard pharmaceutically accepted test procedures with representative compounds as follows:
# Sprague-Dawley rats (150-200 g) are rendered unconscious by CO2 asphyxiation and then euthanized by cervical dislocation. The bladder is removed into warm (37 deg. C.) physiological salt solution (PSS) of the following composition (mM): NaCl, 118.4; KCl, 4.7; CaCl2, 2.5; […]; NaHCO3, 24.9; KH2 PO4, 1.2; glucose, 11.1; EDTA, 0.023; gassed with […]; pH 7.4. The bladder is opened and then cut into strips 1-2 mm in width and 7-10 mm in length. The strips are subsequently suspended in a 10 mL tissue bath under an initial resting tension of 1.5 g. The strips are held in place by two surgical clips one of which is attached to a fixed hook while the other is attached to an isometric force transducer. […] The carbachol is then washed out and the tissue allowed to relax to its resting level of activity. Following a further 30 min period of recovery an additional 15 mM KCl are introduced into the tissue bath. This increase in KCl concentration results in a large increase in the amplitude of spontaneous contractions (and initiation of contractions in previously quiescent strips) superimposed upon a small increase in basal tone. Following stabilization of this enhanced level of contractile activity, incremental increases in the concentration of test compound or vehicle are introduced into the tissue bath. Contractile activity is measured for each compound or vehicle concentration during the last minute of a 30 minute challenge.
# The isometric force developed by the bladder strips is measured using a […] to elicit 50% inhibition of pre-drug contractile activity (IC50 concentration) and is calculated from this concentration-response curve.
row,Structure (SMILES),inhibition at 30 µM
1,"CC(C)N(C)c1c(NCc2ccncc2)c(=O)c1=O [Example 7, 3-(Isopropyl-methyl-amino)-4-[(pyridin-4-ylmethyl)-amino]-cyclobut-3-ene-1,2-dione]",27.3 ± 7%
2,"CCC(C)(C)Nc1c(NCc2cc3cc([N+](=O)[O-])ccc3o2)c(=O)c1=O [Example 9, 3-(1,1-Dimethyl-propylamino)-4-[(5-nitro-benzofuran-2-ylmethyl)-amino]-cyclobut-3-ene-1,2-dione]",22.2 ± 7.4%
3,"CC(C)(C)Nc1c(NCc2cc3cc([N+](=O)[O-])ccc3o2)c(=O)c1=O [Example 10, 3-tert-butylamino-4-[(5-nitro-benzofuran-2-ylmethyl)-amino]-cyclobut-3-ene-1,2-dione]",11.5 ± 3.2%
4,"C[C@@H](Nc1c(NCc2cc3cc(C#N)ccc3o2)c(=O)c1=O)C(C)(C)C [Example 12, 2-{[3,4-Dioxo-2-(1,2,2-trimethyl-propylamino)-cyclobut-1-enylamino]-methyl}-benzofuran-5-carbonitrile]",5.5 ± 4%
5,"CC(C)(C)Nc1c(NCc2cc3cc(C#N)ccc3o2)c(=O)c1=O [Example 13, 2-[(2-tert-butylamino-3,4-dioxo-cyclobut-1-enylamino)-methyl]-benzofuran-5-carbonitrile]",19.9 ± 8.5%
6,"CC(C)(Cc1ccccc1)Nc1c(NCc2cc3cc(C#N)ccc3o2)c(=O)c1=O [Example 14, 2-{[2-(1,1-Dimethyl-2-phenyl-ethylamino)-3,4-dioxo-cyclobut-1-enylamino]-methyl}-benzofuran-5-carbonitrile]",31.9 ± 6.4%

# Same assay, conditions: 0.5 h, 30 μM, 15 mM KCl, read-out: Percent contraction (C) at 30 μM
row,Structure (SMILES),activity at 30 µM
1,"C[C@@H](Nc1c(NCc2cc3cc([N+](=O)[O-])ccc3o2)c(=O)c1=O)C(C)(C)C [Example 8, 3-[(5-nitro-benzofuran-2-ylmethyl)-amino]-4-(1,2,2-trimethylpropylamino)-cyclobut-3-ene-1,2-dione]",8.5 ± 1.4%

# Same assay, conditions: 0.5 h, 15 mM KCl, 30 minute challenge
row,IC50,Structure (SMILES)
1,420 ± 60 nM,"CCC(C)(C)Nc1c(NCc2ccncc2)c(=O)c1=O [Example 1, 3-(1,1-Dimethylpropylamino)-4-[(pyridin-4-ylmethyl)-amino]-cyclobut-3-ene-1,2-dione]"
2,1250 ± 390 nM,CCC(C)(C)Nc1c(NCc2cccnc2)c(=O)c1=O [Example 2]
3,1250 ± 340 nM,"CCC(C)(C)Nc1c(NCc2ccccn2)c(=O)c1=O [Example 3, 3-(1,1-Dimethylpropylamino)-4-[(pyridin-2-ylmethyl)amino]-cyclobut-3-ene-1,2-dione]"
4,3000 ± 200 nM,"CC(C)(C)Nc1c(NCc2ccncc2)c(=O)c1=O [Example 4, 3-tert-Butylamino-4-[(pyridin-4-ylmethyl)amino]-cyclobut-3-ene-1,2-dione]"
5,2630 ± 220 nM,"CC(C)(C)Nc1c(NCc2cccnc2)c(=O)c1=O [Example 5, 3-tert-Butylamino-4-[(pyridin-3-ylmethyl)amino]-cyclobut-3-ene-1,2-dione]"
6,11400 ± 4300 nM,"CC(C)(C)Nc1c(NCc2ccccn2)c(=O)c1=O [Example 6, 3-tert-Butylamino-4-[(pyridin-2-ylmethyl)amino]-cyclobut-3-ene-1,2-dione]"
7,1560 ± 160 nM,"CCC(C)(C)Nc1c(NCc2cc3cc(C#N)ccc3o2)c(=O)c1=O [Example 11, 2-{[2-(1,1-Dimethyl-propylamino)-3,4-dioxo-cyclobut-1-enylamino]-methyl}-benzofuran-5-carbonitrile]"
8,3750 ± 1440 nM,"C[C@@H](Nc1c(NCc2cc3cc(C#N)ccc3o2)c(=O)c1=O)C(C)(C)C [Example 12, 2-{[3,4-Dioxo-2-(1,2,2-trimethyl-propylamino)-cyclobut-1-enylamino]-methyl}-benzofuran-5-carbonitrile]"
9,2450 ± 990 nM,"CC(Nc1c(NCc2ccncc2)c(=O)c1=O)C(C)(C)C (stereo not drawn) [Example 15, 3-[(Pyridin-4-ylmethyl)-amino]-4-(1,2,2-trimethyl-propylamino)-cyclobut-3-ene-1,2-dione]"
10,1300 ± 630 nM,"CCC(C)(C)Nc1c(NCc2oc3ccc(C#N)cc3c2Cl)c(=O)c1=O [Example 16, 2-{[2-(1,1-Dimethyl-propylamino)-3,4-dioxo-cyclobut-1-enylamino]-methyl}-3-chloro-benzofuran-5-carbonitrile]"

# System: hypertrophied bladder (detrussor) smooth muscle
# Assay: Inhibition of spontaneous contractions in vivo, hypertrophied rat bladder model (conscious rats, cystometry)
# Set-up: species or system female Sprague-Dawley rats
# Details: 10 mg/kg p.o., 3 animals, conscious female rats, second cystometry one hour after dosing
# Experimental: In addition, we tested the ability of the compound of Example 1, as representative of the other compounds of this invention, to inhibit the hyperactivity of hypertrophied bladder (detrussor) smooth muscle in conscious female rats with hypertrophied bladders and thereby alleviate urinary incontinence according to the protocol described by Malmgrem et al., J. Urol. 142:1134, 1989.
# Female Sprague-Dawley rats, ranging in weight from 190-210 g are used. Up to 25 animals are prepared each time. After development of bladder hypertrophy 4-8 animals are used per test.
# Compounds are dissolved in PEG-200 and administered by gastric gavage or intraveneously in a volume of 5 ml/kg. For primary screening all drugs are administered at the arbitrary dose of 10 mg/kg p.o. to groups of 4 rats.
# The animals are anesthetized with halothane. […]
# The following urodynamic variables are recorded:
# The mean value of each variable is calculated before and after compound administration. For each compound the changes in the variables measured are compared to the values obtained before treatment and expressed as percent inhibition. The data are also subjected to 2-way analysis of variance to determine significant (p<0.05) changes in the variable measured.
row,Structure (SMILES),% Red (F): percent reduction in the total number of spontaneous contractions in the hypertrophied rat bladder model
1,"CCC(C)(C)Nc1c(NCc2ccncc2)c(=O)c1=O [Example 1, 3-(1,1-Dimethylpropylamino)-4-[(pyridin-4-ylmethyl)-amino]-cyclobut-3-ene-1,2-dione]",-8 ± 4%
